Laboratory results: patent US4859664A, “Derivatives of 2,3,4,5,6,7-hexahydro-2,7-methano-1,5-benzoxazonines and -1,4-benzoxazonines, processes for their production and their use as pharmaceuticals” (priority 1986, dated 1989)
Like-named read-outs stand apart in the source and are kept apart here.

Key:
[1] = assay type: in vivo, male NMRI mice; settings: for % inhibition action ± SEM with naloxone: with naloxone hydrochloride 20 mg./kg. s.c.; for change in % (with vs without naloxone): given without sign
Procedure: They were given a standard feed and water ad libitum up to the commencement of the experiments.
(§1) The test compounds were administered in a volume of 10 ml./kg./body weight per mouse. As carrier, there was used physiological sodium chloride solution or a suspension of 0.5% tragacanth in physiological sodium chloride solution.
The experimental results are given as average values with a mean error of the average value (x±S.E.M.). The ED50 values were calculated according to Litchfield and Wilcoxon (J. Pharmacol. Exp. Ther., 96, 99/1949). The compounds were thereby tested in 4 dosages (p≤0.5).
For the significance calculation, there was used Student's t test (see Angewandte Statistik, pub. Stringer Verlag, Berlin, Heidelberg, 242/1983), as well as the range sum test of Mann and Withney (Ann. Math. stat., 50, 1818/1947).
1.1. In the acetic acid writhing test (see R. Koster et al., Fed. proc., 18, 412/1954), the typical stretching movements referred to as "writhing", were produced by the intraperitoneal administration of a 0.6% acetic acid solution. 30 minutes previously, the substance to be tested was administered subcutaneously (s.c.) or orally ([…].) to the animals. 3 minutes after administration of the acetic acid solution, the total number of stretching movements in a period of time of 10 minutes was ascertained. From the decrease of the stretching reactions due to the action of the test compound in comparison with non-pretreated control groups, there was determined the percentage inhibition action.
Naloxone-antagonistic action in the writhing test.
20 Minutes before the subcutaneous administration of the test compounds, the animals were given 20 mg./kg. naloxone hydrochloride subcutaneously. The further carrying out of the experiments was as described above.

[2] = assay type: in vivo, male NMRI mice; settings: s.c. increasing dosages over 2 days, naloxone i.p.; for % of reacting animals: 10 minutes
Procedure: (§2) […]. They were given a standard feed and water ad libitum up to the commencement of the experiments.
as §1
2. Development of dependency.
Withdrawal jumps of the mouse (see J. K. Saelens et al., Arch. Int. Pharmacodyn. Ther., 190, 213/1971).
Mice which were dependent upon morphine or other opiates react, when treated with morphine antagonists, with a flight reaction (see F. Huidobro and C. Maggiolo, Arch. Int. Pharmacodyn. Ther., 158, 97/1965); E. L. Way et al., Science, 162, 1290/1968). This flight reaction manifests itself in very vigorous jumping reactions which continue for about 10 minutes. From the number of reacting animals and especially from the jump frequency per animal, there can be deduced the strength of the withdrawal symptoms and thus the degree of dependency upon the test compound. Carrying out of the test:
The test and standard compounds were administered subcutaneously according to the scheme shown in the following Table III in increasing dosages over the course of 2 days.
For the provocation of the withdrawal jumps, the animals received intraperitoneally, 2 hours after the last compound administration, 30 mg./kg. naloxone hydrochloride.
Immediately after the administration of the naloxone, the animals were placed individually in a 5 liter glass beaker. Subsequently, the number of jump movements was recorded during the course of 10 minutes. For evaluation, the number of animals reacting the withdrawal jumps, as well as the average number of jumps per animal, was used.
The animals of the naloxone control group were, up to the administration of naloxone, treated with a 0.9% aqueous solution of sodium chloride (6 animals/dosage group).

[3] = influencing of the amphetamine group toxicity; assay type: in vivo, male NMRI mice
Procedure: as §2, §1
3. Influencing of the amphetamine group toxicity.
There was investigated the influence of the test compounds on the mortality of amphetamine-treated, aggregated mice. The dosaging of d-amphetamine was 15 mg./kg., which should permit the recognition not only of a synergism but also of an antagonism towards a sympathomimetic compound. Carrying out the experiment:
30 minutes after the subcutaneous administration of the test substance, the animals received subcutaneously 15 mg./kg. of d-amphetamine sulphate. The number of dead animals was recorded after 2, 4 and 7 hours. For the maintenance of the group size, the dead animals were replaced by untreated animals (6 animals/dosage group).

[4] = testing for ataxia (rotating rod test); assay type: in vivo, male NMRI mice
Procedure: (§3) For the pharmacological investigations described in the following, there were used male NMRI mice with a weight of from 15 to 30 g. The animals were kept under usual laboratory conditions, randomised and subjected to a light-dark change with a 12 hour rhythm. They were given a standard feed and water ad libitum up to the commencement of the experiments.
as §1
There was used the rotating rod test (see F. Gross et al., Schweiz. Med. Wschr., 85, 305/1955).
5 animals per dosage group were trained to keep themselves on a horizontally rotating rod made of synthetic resin (16 rpm). 40, 80 and 120 minutes after the subcutaneous administration of the test compounds, the animals were again tested. From the number of animals which fell off prematurely, there was determined the disturbance of the movement coordination.

[5] = tonus reduction on striated musculature; assay type: in vivo, male NMRI mice
Procedure: as §3, §1
6. Tonus reduction on striated musculature.
The test used is described by J. P. Chambon et al. (Arzneimittelforschung (Drug Research), 35 (II), (10), 1572/1985).
5 animals per dosage group were placed with their front paws on a horizontal metal rod (diameter 3 mm., length 20 cm.) which was fixed 30 cm. above a laboratory bench. Mice with normal muscle tonus climbed within 5 seconds on to the rod with at least one rear paw.
40, 80 and 120 minutes after the subcutaneous administration of the test compound, the animals were again tested for this ability and the number of incapable animals was recorded.

[6] = 25 mg/kg s.c. + d-amphetamine sulphate 15 mg./kg. s.c.
[7] = 50 mg/kg s.c. + d-amphetamine sulphate 15 mg./kg. s.c.

Row | SMILES | % inhibition action ± SEM with naloxone ([1]; 12.5 mg/kg s.c.) [%] | % inhibition action ± SEM without naloxone ([1]; 12.5 mg/kg s.c.) [%] | change in % (with vs without naloxone) ([1]; 12.5 mg/kg s.c.) [%] | % inhibition action ± SEM with naloxone ([1]; 25 mg/kg s.c.) [%] | % inhibition action ± SEM without naloxone ([1]; 25 mg/kg s.c.) [%] | change in % (with vs without naloxone) ([1]; 25 mg/kg s.c.) [%] | % inhibition action ± SEM with naloxone ([1]; 50 mg/kg s.c.) [%] | % inhibition action ± SEM without naloxone ([1]; 50 mg/kg s.c.) [%] | change in % (with vs without naloxone) ([1]; 50 mg/kg s.c.) [%] | average number of jumps/animal/10 minutes [2] | % of reacting animals [2] [%] | % of deceased animals after 2 hrs. [3, 6] [%] | % of deceased animals after 4 hrs. [3, 6] [%] | % of deceased animals after 7 hrs. [3, 6] [%] | % of deceased animals, total [3, 6] [%] | % of deceased animals after 2 hrs. [3, 7] [%] | % of deceased animals after 4 hrs. [3, 7] [%] | % of deceased animals after 7 hrs. [3, 7] [%] | % of deceased animals, total [3, 7] [%] | change of the maintenance time in % compared with the control group, after 40 min. ([4]; 25 mg/kg s.c.) [%] | further results
1 | CC1NCCC2(C)CC1c1ccccc1O2 (stereo not drawn) [Example 9, 2,3,4,5,6,7-hexahydro-2,6-dimethyl-2,7-methano-1,5-benzoxazonine] | 52.0 ± 1.5 | 57.0 ± 7.6 | 5.0 | 80.1 ± 6.8 | 64.0 ± 5.0 | 16.1 | 88.4 ± 11.6 | 84.9 ± 2.7 | 3.5 | 0 | 0 | 16.7 | 0 | 0 | 16.7 | 0 | 0 | 33.3 | 33.3 | -13 | change of the maintenance time in % compared with the control group, after 80 min. ([4]; 25 mg/kg s.c.): -17%; change of the maintenance time in % compared with the control group, after 120 min. ([4]; 25 mg/kg s.c.): -12%; change of the maintenance time in % compared with the control group, after 40 min. ([4]; 50 mg/kg s.c.): 0%; change of the maintenance time in % compared with the control group, after 80 min. ([4]; 50 mg/kg s.c.): 0%; change of the maintenance time in % compared with the control group, after 120 min. ([4]; 50 mg/kg s.c.): -2%; muscle-relaxing action ([5]; 25 mg./kg. s.c.): 13%; muscle-relaxing action ([5]; 50 mg./kg. s.c.): 20%
2 | CC12CCNCC(C1)c1ccccc1O2 (stereo not drawn) [Example 6, 2,3,4,5,6,7-hexahydro-2-methyl-2,7-methano-1,5-benzoxazonine] | 39.7 ± 10.4 | 33.2 ± 3.2 | 6.5 | 65.5 ± 6.5 | 58.9 ± 10.1 | 6.6 | 91.8 ± 3.3 | 84.6 ± 7.7 | 7.2 | 0 | 0 | 0 | 0 | 16.7 | 16.7 | 0 | 16.7 | 0 | 16.7 | 0 | change of the maintenance time in % compared with the control group, after 80 min. ([4]; 25 mg/kg s.c.): -8%; change of the maintenance time in % compared with the control group, after 120 min. ([4]; 25 mg/kg s.c.): 0%; change of the maintenance time in % compared with the control group, after 40 min. ([4]; 50 mg/kg s.c.): -17%; change of the maintenance time in % compared with the control group, after 80 min. ([4]; 50 mg/kg s.c.): 0%; change of the maintenance time in % compared with the control group, after 120 min. ([4]; 50 mg/kg s.c.): -8%; muscle-relaxing action ([5]; 25 mg./kg. s.c.): 13%; muscle-relaxing action ([5]; 50 mg./kg. s.c.): 20%
